# In patent US20230033360A1, “COMPOUNDS AS CD73 INHIBITORS” (BioArdis LLC, priority 2019, published 2023):
# Target: T1, Recombinant Human 5′-Nucleotidase (CD73) (Homo sapiens, UniProt P21589)
# T1 construct: CHO derived CD73 (Trp27-Lys547), with a C-terminal 6-His tag; 6-His (C); purchased R&D 5795-EN; host or cells: CHO
# T1 sequence (P21589 27-547): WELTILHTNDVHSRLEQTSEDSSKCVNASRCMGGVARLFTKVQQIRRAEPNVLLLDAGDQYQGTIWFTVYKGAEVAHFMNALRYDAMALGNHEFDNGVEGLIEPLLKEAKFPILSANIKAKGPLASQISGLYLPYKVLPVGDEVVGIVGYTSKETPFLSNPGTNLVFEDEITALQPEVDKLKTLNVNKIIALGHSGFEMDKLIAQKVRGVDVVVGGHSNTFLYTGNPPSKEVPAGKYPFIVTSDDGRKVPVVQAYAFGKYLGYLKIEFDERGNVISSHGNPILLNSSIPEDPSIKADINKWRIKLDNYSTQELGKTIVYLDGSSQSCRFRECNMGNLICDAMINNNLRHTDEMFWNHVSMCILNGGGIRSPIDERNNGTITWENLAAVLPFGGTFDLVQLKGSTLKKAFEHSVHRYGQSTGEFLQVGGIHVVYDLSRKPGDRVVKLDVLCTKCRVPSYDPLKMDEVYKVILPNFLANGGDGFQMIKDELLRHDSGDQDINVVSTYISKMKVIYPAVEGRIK
# Experiment: CD73 Enzyme Assay (PiColorLock inorganic phosphate detection, AMP substrate)
# Assay type: biochemical
# Conditions: human CD73 0.5 nM, AMP 30 μM, 20 min at 37° C., absorbance 635 nm; read-out: Potency (IC50)
# Description: Soluble recombinant CD73 catalyzes the conversion of adenosine monophosphate (AMP) to adenosine and inorganic phosphate. The phosphate detection reagent, PiColorLock™ (Innova Bioscience, Cat #303-0125) is based on the change in absorbance of the dye malachite green in the presence of inorganic phosphate (Pi) and this property can be exploited to measure any enzyme that generates Pi. Recombinant Human 5′-Nucleotidase (CD73) (R&D #5795-EN, CHO derived CD73 (Trp27-Lys547), with a C-terminal 6-His tag) was used in the enzymatic assay. This assay, run in a 384-well plate format (Corning® NBS™ 384 well plates, Cat #3640), is a generic method for measuring inorganic phosphate. The basic assay procedure involves two steps: 1) Enzyme reaction: The CD73 enzyme (R&D #5795-EN) is incubated in the presence or absence of compounds. AMP (sigma, cat #01930) is added to start the […] reaction. 2) Detection step: Gold mix is added to the assay system, then stabilizers are added. After incubation the absorbance of the solution is read at OD 635 nm. The recorded OD signal is proportional to the enzyme activity.
# Briefly, 25 μl human CD73 (0.5 nM final concentration) in the enzymatic buffer solutions (20 mM Tris, 25 mM NaCl, 1 mM MgCl2, pH 7.5, 0.005% Tween-20) were mixed with various concentrations of the test compound (dissolved in 100% DMSO). These solutions were incubated for 15 min at 25° C., and subsequently 25 μl AMP (30 μM final concentration) was added to start the reaction. The final reaction mixture of enzyme-substrate-compound was incubated for 20 min at 37° C. Meanwhile ‘Gold mix’ was prepared shortly before use by adding 1/100 vol. of accelerator to the PiColorLock™ Gold reagent. 12 μL/well of the ‘Gold mix’ was added to assay plate containing 50 μL enzyme reaction buffer and incubated at 25° C. for 5 min. 5 μL/well stabilizer was added to the assay plate and incubated at 25° C. for 30 min. The absorbance of the well solutions was measured at 635 nm on a Spark 10M instrument (TECAN).
# The percent (%) inhibition at each concentration of a compound was calculated relative to the […] value in the Max and Min control wells contained within each assay plate. The Max control wells contained enzyme and substrate as 0% inhibition, and the Min control wells only contained substrate without enzyme as 100% inhibition. The concentrations and percent inhibition values for a test compound are plotted and the concentration of the compound required to achieve 50% inhibition (IC50) was determined with a four-parameter logistic dose response equation.
row,Compound,IC50 [nM]
1,"O=P(O)(O)CP(=O)(O)OC[C@H]1O[C@@H](c2ncc3c(N4CCC[C@H]4c4ccccc4)cc(Cl)nn23)[C@H](O)[C@@H]1O [Example S8, (((((2R,3S,4R,5S)-5-(2-chloro-4-((S)-2-phenylpyrrolidin-1-yl)imidazo[1,5-b]pyridazin-7-yl)-3,4-dihydroxytetrahydrofuran-2-yl)methoxy)(hydroxy)phosphoryl)methyl)phosphonic acid]",1 to 9.9
2,"C[C@H](Nc1cc(Cl)nn2c([C@@H]3O[C@H](COP(=O)(O)CP(=O)(O)O)[C@@H](O)[C@H]3O)cnc12)c1ccccc1F [Example S2, [({[(2R,3S,4R,5S)-5-(6-chloro-8-{[(1S)-1-(2-fluorophenyl)ethyl]amino}imidazo[1,2-b]pyridazin-3-yl)-3,4-dihydroxyoxolan-2-yl]methoxy}(hydroxy)phosphoryl)methyl]phosphonic acid]",1 to 9.9
3,"C[C@H](Nc1cc(Cl)nn2c(C3O[C@H](COP(=O)(O)CP(=O)(O)O)[C@@H](O)[C@H]3O)cnc12)c1cccc(F)c1 (stereo partly drawn) [Example S16, (((((2R,3S,4R)-5-(6-chloro-8-(((S)-1-(3-fluorophenyl)ethyl)amino)imidazo[1,2-b]pyridazin-3-yl)-3,4-dihydroxytetrahydrofuran-2-yl)methoxy)(hydroxy)phosphoryl)methyl)phosphonic acid]",1 to 9.9
4,"O=P(O)(O)CP(=O)(O)OC[C@H]1OC(c2cnc3c(NCc4ccccc4)cc(Cl)nn23)[C@H](O)[C@@H]1O (stereo partly drawn) [Example S14, (((((2R,3S,4R)-5-(8-(benzylamino)-6-chloroimidazo[1,2-b]pyridazin-3-yl)-3,4-dihydroxytetrahydrofuran-2-yl)methoxy)(hydroxy)phosphoryl)methyl)phosphonic acid]",1 to 9.9
5,"O=P(O)(O)CP(=O)(O)OC[C@H]1OC(c2cnc3c(N4CCC(F)(F)C4)cc(Cl)nn23)[C@@H](F)[C@@H]1O (stereo partly drawn) [Example S22, (((((2R,3R,4S)-5-(6-chloro-8-(3,3-difluoropyrrolidin-1-yl)imidazo[1,2-b]pyridazin-3-yl)-4-fluoro-3-hydroxytetrahydrofuran-2-yl)methoxy)(hydroxy)phosphoryl)methyl)phosphonic acid]",10 to 99
6,"O=P(O)(O)CP(=O)(O)OC[C@H]1O[C@@H](c2cnc3c(NC45CCC(CC4)C5)cc(Cl)nn23)[C@H](O)[C@@H]1O [Example S33, [({[(2R,3S,4R,5S)-5-(8-{bicyclo[2.2.1]heptan-1-ylamino}-6-chloroimidazo[1,2-b]pyridazin-3-yl)-3,4-dihydroxyoxolan-2-yl]methoxy}(hydroxy)phosphoryl)methyl]phosphonic acid]",1 to 9.9
7,"O=P(O)(O)CP(=O)(O)OC[C@H]1OC(c2cnc3c(NC4CCC(F)(F)C4)cc(Cl)nn23)[C@H](O)[C@@H]1O (stereo partly drawn) [Example S13, (((((2R,3S,4R)-5-(6-chloro-8-((3,3-difluorocyclopentyl)amino)imidazo[1,2-b]pyridazin-3-yl)-3,4-dihydroxytetrahydrofuran-2-yl)methoxy)(hydroxy)phosphoryl)methyl)phosphonic acid]",1 to 9.9
8,"O=P(O)(O)CP(=O)(O)OC[C@H]1O[C@@H](c2cnc3c(N4CCC[C@H]4c4ccccc4)cc(Cl)nn23)[C@H](O)[C@@H]1O [Example S3, (((((2R,3S,4R,5S)-5-(6-chloro-8-((S)-2-phenylpyrrolidin-1-yl)imidazo[1,2-b]pyridazin-3-yl)-3,4-dihydroxytetrahydrofuran-2-yl)methoxy)(hydroxy)phosphoryl)methyl)phosphonic acid]",1 to 9.9
9,"O=P(O)(O)CP(=O)(O)OC[C@H]1O[C@@H](c2ncc3c(N4CC5CCCC5C4)cc(Cl)nn23)[C@H](O)[C@@H]1O (stereo partly drawn) [Example S9, [({[(2R,3S,4R,5S)-5-(2-chloro-4-{hexahydro-1H-cyclopenta[c]pyrrol-2-yl}imidazo[1,5-b]pyridazin-7-yl)-3,4-dihydroxyoxolan-2-yl]methoxy}(hydroxy)phosphoryl)methyl]phosphonic acid]",< 1
10,"C[C@H](Nc1cc(Cl)nn2c(C3O[C@H](COP(=O)(O)CP(=O)(O)O)[C@@H](O)[C@H]3O)cnc12)c1ccc(F)cc1 (stereo partly drawn) [Example S17, (((((2R,3S,4R)-5-(6-chloro-8-(((S)-1-(4-fluorophenyl)ethyl)amino)imidazo[1,2-b]pyridazin-3-yl)-3,4-dihydroxytetrahydrofuran-2-yl)methoxy)(hydroxy)phosphoryl)methyl)phosphonic acid]",< 1
11,"O=P(O)(O)CP(=O)(O)OC[C@H]1OC(c2cnc3c(N4CCC(F)(F)CC4)cc(Cl)nn23)[C@H](O)[C@@H]1O (stereo partly drawn) [Example S29, (((((2R,3S,4R)-5-(6-chloro-8-(4,4-difluoropiperidin-1-yl)imidazo[1,2-b]pyridazin-3-yl)-3,4-dihydroxytetrahydrofuran-2-yl)methoxy)(hydroxy)phosphoryl)methyl)phosphonic acid]",1 to 9.9
12,"O=P(O)(O)CP(=O)(O)OC[C@H]1O[C@@H](c2cnc3c(N4CCC[C@H]4c4ccccc4F)cc(Cl)nn23)[C@H](O)[C@@H]1O [Example S34, (((((2R,3S,4R,5S)-5-(6-chloro-8-((S)-2-(2-fluorophenyl)pyrrolidin-1-yl)imidazo[1,2-b]pyridazin-3-yl)-3,4-dihydroxytetrahydrofuran-2-yl)methoxy)(hydroxy)phosphoryl)methyl)phosphonic acid]",1 to 9.9

# Now from value to compound:
row,IC50 [nM],Compound
1,1 to 9.9,CN(c1cc(Cl)nn2c([C@@H]3O[C@H](COP(=O)(O)CP(=O)(O)O)[C@@H](O)[C@H]3O)cnc12)C1CCCC1 [Example S32]
2,1 to 9.9,"O=P(O)(O)CP(=O)(O)OC[C@H]1O[C@@H](c2cnc3c(NC4CC5CCC4C5)cc(Cl)nn23)[C@H](O)[C@@H]1O (stereo partly drawn) [Example S6, (((((2R,3S,4R,5S)-5-(8-(bicyclo[2.2.1]heptan-2-ylamino)-6-chloroimidazo[1,2-b]pyridazin-3-yl)-3,4-dihydroxytetrahydrofuran-2-yl)methoxy)(hydroxy)phosphoryl)methyl)phosphonic acid]"
3,1 to 9.9,"O=P(O)(O)CP(=O)(O)OC[C@H]1O[C@@H](c2cnc3c(NC4CCCCC4)cc(Cl)nn23)[C@H](O)[C@@H]1O [Example S5, (((((2R,3S,4R,5S)-5-(6-chloro-8-(cyclohexylamino)imidazo[1,2-b]pyridazin-3-yl)-3,4-dihydroxytetrahydrofuran-2-yl)methoxy)(hydroxy)phosphoryl)methyl)phosphonic acid]"
4,10 to 99,"O=P(O)(O)CP(=O)(O)OC[C@H]1O[C@@H](c2cnc3c(NC4CCCC4)cc(Cl)nn23)[C@@H](F)[C@@H]1O [Example S31, (((((2R,3R,4S,5S)-5-(6-chloro-8-(cyclopentylamino)imidazo[1,2-b]pyridazin-3-yl)-4-fluoro-3-hydroxytetrahydrofuran-2-yl)methoxy)(hydroxy)phosphoryl)methyl)phosphonic acid]"
5,1 to 9.9,"O=P(O)(O)CP(=O)(O)OC[C@H]1OC(c2cnc3c(N4CCCC4)cc(Cl)nn23)[C@H](O)[C@@H]1O (stereo partly drawn) [Example S20, (((((2R,3S,4R)-5-(6-chloro-8-(pyrrolidin-1-yl)imidazo[1,2-b]pyridazin-3-yl)-3,4-dihydroxytetrahydrofuran-2-yl)methoxy)(hydroxy)phosphoryl)methyl)phosphonic acid]"
6,< 1,"O=P(O)(O)CP(=O)(O)OC[C@H]1O[C@@H](c2csc3c(NC4CCCC4)nc(Cl)nc23)[C@H](O)[C@@H]1O [Example S10, (((((2R,3S,4R,5S)-5-(2-chloro-4-(cyclopentylamino)thieno[3,2-d]pyrimidin-7-yl)-3,4-dihydroxytetrahydrofuran-2-yl)methoxy)(hydroxy)phosphoryl)methyl)phosphonic acid]"
